Data on 26 compounds can be found in PubChem BioAssay AID256 (DTP/NCI, 2004).

Several values for one entry are separate records, joined by “and”; a condition that tells them apart may be missing. Identical values can stand only once. Inconclusive results and toxic doses are left out.

The test relates to CD2F1 mice, L1210 leukemia ip, survival T/C. Description: NCI In Vivo Anticancer Drug Screen. Data for tumor model L1210 Leukemia (intraperitoneal) in CD2F1 (CDF1) mice. The following applies: higher = longer survival. In outline: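 Transplantable tumor in mice; compound-treated vs vehicle-treated groups. Read-out = treated/control ratio of the measured endpoint.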
[1] abbreviates: endpoint: mean survival time, dose: 100.0 mg/kg/injection, schedule: Q04DX003 (ip), vehicle: saline with Tween-80.
Setting [2] is: endpoint: mean survival time, dose: 200.0 mg/kg/injection, schedule: Q04DX003 (ip), vehicle: saline with Tween-80.
[3] abbreviates: endpoint: mean survival time, dose: 400.0 mg/kg/injection, schedule: Q04DX003 (ip), vehicle: saline with Tween-80.
The mark [4] stands for this setting: endpoint: mean survival time, dose: 100.0 mg/kg/injection, schedule: Q01DX001 (ip), vehicle: saline with Tween-80.
Setting [5] is: endpoint: mean survival time, dose: 200.0 mg/kg/injection, schedule: Q01DX001 (ip), vehicle: saline with Tween-80.
[6] abbreviates: endpoint: mean survival time, dose: 100.0 mg/kg/injection, schedule: Q01DX009 (ip), vehicle: saline with Tween-80.
Where [7] appears, read: endpoint: mean survival time, dose: 200.0 mg/kg/injection, schedule: Q01DX009 (ip), vehicle: saline with Tween-80.
[8] abbreviates: endpoint: mean survival time, dose: 50.0 mg/kg/injection, schedule: Q04DX003 (ip), vehicle: saline.
Setting [9] is: endpoint: mean survival time, dose: 100.0 mg/kg/injection, schedule: Q04DX003 (ip), vehicle: saline.
Setting [10] is: endpoint: mean survival time, dose: 50.0 mg/kg/injection, schedule: Q01DX009 (ip), vehicle: saline with Tween-80.
Where [11] appears, read: endpoint: mean survival time, dose: 12.5 mg/kg/injection, schedule: Q01DX009 (ip), vehicle: saline with Tween-80.
The mark [12] stands for this setting: endpoint: mean survival time, dose: 25.0 mg/kg/injection, schedule: Q01DX009 (ip), vehicle: saline with Tween-80.
Where [13] appears, read: endpoint: mean survival time, dose: 50.0 mg/kg/injection, schedule: Q01DX009 (ip), vehicle: saline.
The mark [14] stands for this setting: endpoint: mean survival time, dose: 100.0 mg/kg/injection, schedule: Q01DX009 (ip), vehicle: saline.

As to `COc1ccc(C(=O)CC(=O)Nc2ccc([N+](=O)[O-])cc2)cc1`, the T/C reads like this: (endpoint: mean survival time, dose: 100.0 mg/kg/injection, schedule: Q01DX009 (ip), vehicle: Klucel (hydroxypropylcellulose) (HPC)) 98 % of control; under setting [1], 107 % of control; (endpoint: mean survival time, dose: 200.0 mg/kg/injection, schedule: Q01DX009 (ip), vehicle: Klucel (hydroxypropylcellulose) (HPC)) 97 % of control; under setting [2], 102 % of control; (endpoint: mean survival time, dose: 400.0 mg/kg/injection, schedule: Q01DX009 (ip), vehicle: Klucel (hydroxypropylcellulose) (HPC)) 97 % of control; under setting [3], 101 % of control.

For the compound `CCOC(=O)Nc1cc(N)c2[nH]cnc2n1`, the T/C (endpoint: mean survival time, dose: 100.0 mg/kg/injection, schedule: Q01DX001 (ip), vehicle: carboxymethylcellulose (CMC)) is 96 % of control.

`CC1=C(C)C2(C)C1(C)C1(C)C(C)=C(C)C21C` (stereo not drawn): the T/C is, setting by setting: under setting [1], 96 % of control; under setting [2], 93 % of control; under setting [3], 89 % of control.

Turning to `C/C=C(/Cl)C(=O)O`, the T/C under setting [4] is 100 % of control and the T/C under setting [5] was 101 % of control.

As for `ClC=P(c1ccccc1)(c1ccccc1)c1ccccc1`, the T/C runs as follows: under setting [6], 96 % of control; under setting [7], 92 % of control.

For the compound `COCc1ccc(C(=O)O)cc1`, the T/C is 105 % of control under setting [4]; 96 % of control under setting [5]; 97 % of control (endpoint: mean survival time, dose: 400.0 mg/kg/injection, schedule: Q01DX001 (ip), vehicle: saline with Tween-80).

Turning to `CCC(C)CC(O)CC1=CCCCC1` (stereo not drawn), the T/C is 91 % of control under setting [1], 95 % of control under setting [2] and 106 % of control under setting [3].

For `O/N=C\C[n+]1cc2ccccc2cc1/C=N\O`, the T/C is 93 % of control (endpoint: mean survival time, dose: 12.5 mg/kg/injection, schedule: Q04DX003 (ip), vehicle: saline); 101 % of control (endpoint: mean survival time, dose: 25.0 mg/kg/injection, schedule: Q04DX003 (ip), vehicle: saline); 90 % of control under setting [8].

For the compound `O=C(C[n+]1cccc(C(=O)NCc2ccccc2)c1)Nc1ccccc1`, the T/C under setting [9] is 96 % of control.

As to `O=c1cc(Cc2ccccc2)[nH]c(=S)[nH]1`, the T/C reads like this: (endpoint: mean survival time, dose: 100.0 mg/kg/injection, schedule: Q01DX001 (ip), vehicle: Klucel (hydroxypropylcellulose) (HPC)) 94 % of control; (endpoint: mean survival time, dose: 200.0 mg/kg/injection, schedule: Q01DX001 (ip), vehicle: Klucel (hydroxypropylcellulose) (HPC)) 95 % of control; (endpoint: mean survival time, dose: 400.0 mg/kg/injection, schedule: Q01DX001 (ip), vehicle: Klucel (hydroxypropylcellulose) (HPC)) 89 % of control.

For `Nc1ccc(-c2ccc(N)cc2O)c(O)c1`, the T/C runs as follows: under setting [10], 98 % of control; under setting [6], 95 % of control.

As for `C/C(=N\NC(N)=O)c1cccc(/C(C)=N/NC(N)=O)n1`, the T/C is 102 % of control and 103 % of control (endpoint: mean survival time, dose: 6.25 mg/kg/injection, schedule: Q01DX009 (ip), vehicle: saline with Tween-80); 103 % of control and 104 % of control under setting [11]; 100 % of control and 101 % of control under setting [12]; 98 % of control and 103 % of control under setting [10]; 92 % of control and 102 % of control under setting [6]; 91 % of control and 110 % of control under setting [7].

In the case of `CC1CCCN(CCSSCCN2CCCC(C)C2)C1` (stereo not drawn), the T/C is, setting by setting: under setting [11], 104 % of control; (endpoint: mean survival time, dose: 12.5 mg/kg/injection, schedule: Q04DX003 (ip), vehicle: saline sonified) 97 % of control; under setting [12], 96 % of control; (endpoint: mean survival time, dose: 25.0 mg/kg/injection, schedule: Q04DX003 (ip), vehicle: saline sonified) 98 % of control; under setting [10], 95 % of control; (endpoint: mean survival time, dose: 50.0 mg/kg/injection, schedule: Q04DX003 (ip), vehicle: saline sonified) 103 % of control.

As for `NC(N)=NS(=O)(=O)c1ccc(NCc2c3ccccc3nc3ccccc23)cc1`, the T/C runs as follows: (endpoint: median survival time, dose: 50.0 mg/kg/injection, schedule: Q01DX005 (ip), vehicle: Klucel (hydroxypropylcellulose) (HPC)) 150 % of control; (endpoint: median survival time, dose: 172.8 mg/kg/injection, schedule: Q01DX005 (ip), vehicle: Klucel (hydroxypropylcellulose) (HPC)) 178 % of control; (endpoint: median survival time, dose: 200.0 mg/kg/injection, schedule: Q01DX005 (ip), vehicle: Klucel (hydroxypropylcellulose) (HPC)) 153 % of control; (endpoint: median survival time, dose: 400.0 mg/kg/injection, schedule: Q01DX005 (ip), vehicle: Klucel (hydroxypropylcellulose) (HPC)) 172 % of control; (endpoint: median survival time, dose: 480.0 mg/kg/injection, schedule: Q01DX005 (ip), vehicle: Klucel (hydroxypropylcellulose) (HPC)) 150 % of control; (endpoint: median survival time, dose: 800.0 mg/kg/injection, schedule: Q01DX005 (ip), vehicle: Klucel (hydroxypropylcellulose) (HPC)) 178 % of control and 182 % of control. Besides, the T/C (endpoint: median survival time, dose: 1333.33 mg/kg/injection, schedule: Q01DX005 (ip), vehicle: Klucel (hydroxypropylcellulose) (HPC)) is 187 % of control.

In the case of `O=S(=O)(O)CCCl`, the T/C is, setting by setting: under setting [10], 96 % of control; under setting [6], 96 % of control; under setting [7], 96 % of control.

For the compound `O=CC(O)C(O)C(O)C(O)C(O)CO` (stereo not drawn), the T/C is 94 % of control (endpoint: mean survival time, dose: 100.0 mg/kg/injection, schedule: Q01DX001 (ip), vehicle: saline); 103 % of control (endpoint: mean survival time, dose: 200.0 mg/kg/injection, schedule: Q01DX001 (ip), vehicle: saline); 97 % of control (endpoint: mean survival time, dose: 400.0 mg/kg/injection, schedule: Q01DX001 (ip), vehicle: saline).

In the case of `ClC(Cl)(Cl)c1nc2nccnc2[nH]1`, the T/C reads like this: (endpoint: mean survival time, dose: 25.0 mg/kg/injection, schedule: Q01DX009 (ip), vehicle: saline sonified) 100 % of control; (endpoint: mean survival time, dose: 50.0 mg/kg/injection, schedule: Q01DX009 (ip), vehicle: saline sonified) 104 % of control; (endpoint: mean survival time, dose: 100.0 mg/kg/injection, schedule: Q01DX009 (ip), vehicle: saline sonified) 94 % of control.

In the case of `CCOC(=O)C(O)(C(=O)OCC)c1ccc(C)cc1`, the T/C was 97 % of control under setting [6]; 102 % of control under setting [1]; 97 % of control under setting [7]; 100 % of control under setting [2]; 97 % of control (endpoint: mean survival time, dose: 400.0 mg/kg/injection, schedule: Q01DX009 (ip), vehicle: saline with Tween-80); 100 % of control under setting [3].

`CNCCN1CCC(Cc2ccccc2)CC1`: the T/C under setting [13] is 102 % of control; the T/C under setting [14] was 100 % of control; the T/C (endpoint: mean survival time, dose: 200.0 mg/kg/injection, schedule: Q01DX009 (ip), vehicle: saline) was 106 % of control.

Regarding `CCN(CC)C(=O)c1ccc[n+](CC(=O)Nc2ccccc2)c1`, the T/C by setting is: (endpoint: mean survival time, dose: 25.0 mg/kg/injection, schedule: Q01DX009 (ip), vehicle: saline) 108 % of control; under setting [13], 105 % of control; under setting [14], 97 % of control; under setting [9], 104 % of control.

`CC1=C2CC3C(CC2(C)C(=O)C=C1)OC(=O)C3C` (stereo not drawn): the T/C is 93 % of control under setting [1], 89 % of control under setting [2] and 98 % of control under setting [3].

Turning to `O=c1oc(-c2ccccc2Cl)nc2cc(Cl)ccc12`, the T/C is, setting by setting: under setting [1], 101 % of control; under setting [2], 94 % of control.

For the compound `CN(CC(=O)O)Cc1ccccc1`, the T/C under setting [8] was 102 % of control; the T/C under setting [9] is 100 % of control; the T/C (endpoint: mean survival time, dose: 200.0 mg/kg/injection, schedule: Q04DX003 (ip), vehicle: saline) is 108 % of control.

In the case of `O=C(/C(Br)=C/c1ccccc1)c1ccccc1`, the T/C is 103 % of control (endpoint: mean survival time, dose: 100.0 mg/kg/injection, schedule: Q04DX003 (ip), vehicle: other) and 105 % of control (endpoint: mean survival time, dose: 200.0 mg/kg/injection, schedule: Q04DX003 (ip), vehicle: other).

Consider `COC1OC2COC(c3ccccc3)OC2C(O)C1O` (stereo not drawn), for which the T/C was 105 % of control (endpoint: mean survival time, dose: 100.0 mg/kg/injection, schedule: Q04DX003 (ip), vehicle: Klucel (hydroxypropylcellulose) (HPC)); 95 % of control (endpoint: mean survival time, dose: 200.0 mg/kg/injection, schedule: Q04DX003 (ip), vehicle: Klucel (hydroxypropylcellulose) (HPC)); 95 % of control (endpoint: mean survival time, dose: 400.0 mg/kg/injection, schedule: Q04DX003 (ip), vehicle: Klucel (hydroxypropylcellulose) (HPC)).

As to `CSc1nc(NC2OC(CO)C(O)C(O)C2O)c(Br)c(=O)[nH]1` (stereo not drawn), the T/C is, setting by setting: (endpoint: median survival time, dose: 12.5 mg/kg/injection, schedule: Q01DX005 (ip), vehicle: saline with Tween-80) 101 % of control; (endpoint: median survival time, dose: 25.0 mg/kg/injection, schedule: Q01DX005 (ip), vehicle: saline with Tween-80) 101 % of control; (endpoint: median survival time, dose: 50.0 mg/kg/injection, schedule: Q01DX005 (ip), vehicle: saline with Tween-80) 100 % of control; (endpoint: median survival time, dose: 100.0 mg/kg/injection, schedule: Q01DX005 (ip), vehicle: saline with Tween-80) 101 % of control; (endpoint: median survival time, dose: 200.0 mg/kg/injection, schedule: Q01DX005 (ip), vehicle: saline with Tween-80) 100 % of control.
